Active and inactive are the calls of the source. The rule behind the calls is not given here.
Legend:
[1] = Oral bioavailability in C57BL/6 mouse at 10 mg/kg; assay type: ADME, organism-based; settings: in vivo
Arginase-1 [2] = molecular target: T1, Arginase-1 (Homo sapiens, UniProt P05089); assay: Inhibition of human recombinant ARG1 expressed in Escherichia coli using thioarginine as a substrate preincubated for 30 mins followed by substrate addition and incubated for 60 mins by fluorescence based arginine thio ornithine generating assay
T1 sequence (P05089 whole entry): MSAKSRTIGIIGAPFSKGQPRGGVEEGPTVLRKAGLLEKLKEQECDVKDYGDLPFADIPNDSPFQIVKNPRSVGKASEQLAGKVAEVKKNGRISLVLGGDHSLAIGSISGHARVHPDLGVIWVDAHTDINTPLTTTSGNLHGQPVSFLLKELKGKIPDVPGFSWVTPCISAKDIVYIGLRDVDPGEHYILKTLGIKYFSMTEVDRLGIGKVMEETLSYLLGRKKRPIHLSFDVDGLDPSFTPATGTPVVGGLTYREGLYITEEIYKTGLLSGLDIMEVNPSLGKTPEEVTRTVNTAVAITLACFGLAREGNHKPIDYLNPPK

Arginase-1 [3] = molecular target: T1, Arginase-1; assay: Inhibition of human ARG1 in HEK293 cells by cell based assay
[4] = Oral bioavailability in Wister Han rat at 10 mg/kg; assay type: ADME, organism-based; settings: in vivo
EMT6 [5] = assay: In vivo inhibition of […] in EMT6 tumor bearing BALB/c mouse assessed as elevated arginine levels in tumor in the presence of mouse anti-PD-1 mAb at 250 mg/kg, po administered twice daily measured after 14 days; assay type: functional, organism-based; settings: Neoplasm, time 14.0 day
EMT6 [6] = assay: In vivo inhibition of […] in EMT6 tumor bearing BALB/c mouse assessed as elevated arginine levels in serum in the presence of mouse anti-PD-1 mAb at 250 mg/kg, po administered twice daily measured after 14 days; assay type: functional, organism-based; settings: time 14.0 day
EMT6 [7] = assay: In vivo inhibition of […] in EMT6 tumor bearing BALB/c mouse assessed as elevated arginine levels in tumor measured after 2 days; assay type: functional, organism-based; settings: time 2.0 day
[8] = Toxicity in EMT6 tumor bearing BALB/c mouse assessed as change in body weight at 30 to 300 mg/kg, po administered twice daily measured up to 14 days; assay type: organism-based; settings: in vivo, 336 h, dose 30-300 mg/kg, time <=14 day
[9] = Drug uptake in serum of EMT6 tumor bearing BALB/c mouse at 30 to 300 mg/kg, po administered twice daily measured after 2 days; assay type: ADME, organism-based; settings: in vivo, 48 h, dose 30-300 mg/kg, time 2 day
EMT6 [10] = assay: In vivo inhibition of […] in EMT6 tumor bearing BALB/c mouse assessed as elevated arginine levels in serum measured after 2 days; assay type: functional, organism-based; settings: time 2.0 day
EMT6 [11] = assay: In vivo inhibition of […] in EMT6 tumor bearing BALB/c mouse assessed as elevated arginine levels in tumor at 250 mg/kg, po administered twice daily measured after 14 days; assay type: functional, organism-based; settings: Neoplasm, time 14.0 day
[12] = Drug uptake in tumor of EMT6 tumor bearing BALB/c mouse at 30 to 300 mg/kg, po administered twice daily measured after 2 days; assay type: ADME, organism-based, Neoplasm; settings: in vivo, 48 h, dose 30-300 mg/kg, time 2 day
EMT6 [13] = assay: In vivo inhibition of […] in EMT6 tumor bearing BALB/c mouse assessed as elevated arginine levels in serum at 250 mg/kg, po administered twice daily measured after 14 days; assay type: functional, organism-based; settings: time 14.0 day
[14] = Oral bioavailability in C57BL/6 mouse in the presence of compound 18 at 10 mg/kg; assay type: ADME, organism-based; settings: in vivo
[15] = Metabolic stability in C57BL/6 mouse hepatocytes assessed as hydrolysis product of (2S,3R,4R)-4-amino-3-(3-boronopropyl)pyrrolidine-2-carboxylic acid measured; assay type: ADME, cell-based, Hepatocyte
[16] = Stability in C57BL/6 mouse hepatocytes; assay type: ADME, cell-based, Hepatocyte

| Structure (SMILES) | bioavailability [1] [%] | IC50 (Arginase-1 [2]) [nM] | EC50 (Arginase-1 [3]) [nM] | bioavailability [4] [%] | also measured |
| --- | --- | --- | --- | --- | --- |
| O=C(O)[C@H]1N[C@H](CO)C[C@H]1CCCB(O)O | 12 | 8 | 4200 | 12 | – |
| N[C@H]1CN[C@H](C(=O)O)[C@@H]1CCCB(O)O | 14 | 3 | 20000 | – | – |
| NC[C@@H]1C[C@@H](CCCB(O)O)[C@@H](C(=O)O)N1 | 44 | 30 | 16000 | 51 | – |
| O=C(O)[C@H]1NC[C@H](O)[C@H]1CCCB(O)O | 41 | 4 | 6900 | 12 | – |
| CO[C@H]1CN[C@H](C(=O)O)[C@@H]1CCCB(O)O | – | – | 28000 | – | – |
| O=C(O)[C@H]1NCC[C@H]1CCCB(O)O | 43 | 16 | 3400 | 25 | inhibition (EMT6 [5]): Active; inhibition (EMT6 [6]): Active; Activity (EMT6 [7]): Dose-Dependent Effect; Activity [8]: Non-Toxic; Drug uptake [9]: Active; Activity (EMT6 [10]): Dose-Dependent Effect; inhibition (EMT6 [11]): Active; Drug uptake [12]: Active; inhibition (EMT6 [13]): Active |
| CN[C@H]1CN[C@H](C(=O)O)[C@@H]1CCCB(O)O | 11 | – | – | – | – |
| O=C(O)[C@H]1NC[C@H]1CCCB(O)O | 42 | – | – | – | – |
| O=C(O)[C@H]1NC[C@@H]1CCCB(O)O | 50 | – | – | – | – |
| C[C@@H]1C[C@@H](CCCB(O)O)[C@@H](C(=O)O)N1 | 31 | 7 | 2800 | – | – |
| O=C(O)[C@H]1NC[C@H](NCC(F)(F)F)[C@H]1CCCB(O)O | 10 | – | – | – | – |
| NC[C@@]1(CCCB(O)O)CCN[C@@H]1C(=O)O | – | 5 | 14000 | – | – |
| C[C@@]1(CCCB(O)O)CCN[C@@H]1C(=O)O | 19 | 33 | 6300 | 9 | – |
| CN(C)[C@H]1CN[C@H](C(=O)O)[C@@H]1CCCB(O)O | 17 | 66 | – | – | – |
| C[C@H](N)C(=O)N[C@H]1CN[C@H](C(=O)O)[C@@H]1CCCB(O)O | 3 | 11 | – | – | bioavailability [14]: 27%; Drug metabolism [15]: Metabolite_Detected; Stabilty [16]: Unstable |
| O=C(O)C1CC(CCB(O)O)CN1 (racemic) | – | 8730 | – | – | – |
| CC(C)[C@H](N)C(=O)N[C@H]1CN[C@H](C(=O)O)[C@@H]1CCCB(O)O | 13 | 2 | – | – | Stabilty [16]: Unstable |
| O=C(O)[C@H]1NCC[C@@H]1CCCB(O)O | 44 | – | – | 34 | – |
| CN[C@H](C(=O)N[C@H]1CN[C@H](C(=O)O)[C@@H]1CCCB(O)O)C(C)C | 4.6 | 5 | – | – | – |
| CC(C)(C)[C@H](N)C(=O)N[C@H]1CN[C@H](C(=O)O)[C@@H]1CCCB(O)O | 34 | < 1 | – | – | – |
| CC(C)[C@@H](N)C(=O)N[C@H]1CN[C@H](C(=O)O)[C@@H]1CCCB(O)O | – | 34 | – | – | – |
| O=C(O)[C@@]1(CCN2CCCCC2)NCC[C@H]1CCCB(O)O | 8.5 | 70 | > 30000 | 2.7 | – |
| O=C(O)[C@H]1NCCO[C@H]1CCCB(O)O | 14 | – | – | 10 | – |
| O=C(O)[C@H]1NCC[C@@]1(CO)CCCB(O)O | 34 | 19 | 11000 | 39 | – |

Reference: ChEMBL document CHEMBL4837253, “Structure-Based Discovery of Proline-Derived Arginase Inhibitors with Improved Oral Bioavailability for Immuno-Oncology” (ACS Med Chem Lett, 2021)
